This assay addresses T1, ERK5 (Homo sapiens, UniProt Q13164).
T1 construct: made in house
In words: ERK5 IMAP assay (fluorescence polarisation). Type of assay: biochemical. The protocol: The assay buffer was prepared using 0.01% Tween®-20 5× stock, supplied as part of IMAP™ FP Progressive Binding System Kit (Molecular Devices R7436) and diluted to 1× using miliQ H2O. 1 μL of a 1M DTT stock was added for every 1 mL of 1× assay buffer to give a final concentration of 1 mM DTT.
ERK5 was expressed and purified at CRT-DL by Leon Pang and Sue Young. Aliquots were stored at −80° C. The ERK5 working solution was used at a […] final dilution in assay buffer. […] For 1 plate, […] of ERK5 stock was added to 2262 μL of 1× assay buffer.
To prepare the IMAP™ binding solution for one plate 20.5 μL of IMAP™ binding reagent stock, 1476 μL of 1× binding buffer A (60%), and 984 μL of binding buffer B (40%) (IMAP™ FP Progressive screening express kit (Molecular Devices R8127) was added to 9819.5 μL of milliQ H2O.
1 μL of inhibitor (in 60:40 H2O/DMSO) or 60:40 H2O/DMSO (for controls and blanks) were dry-spotted into the relevant wells of a 384-well assay plate using the MATRIX PlateMate® Plus. 5 μL of ERK5 working solution was added to test and control wells, and 5 μL of 1× assay buffer added to blanks; 4 μL of ATP/substrate working solution was added to all wells using a Matrix multichannel pipette. The plate was sealed using DMSO resistant clear seal and incubated for 2 h at 37° C. 1 μL of the kinase reaction mixture from the first plate was dry spotted into a second 384-well assay plate using the MATRIX PlateMate® Plus. 9 μL of assay buffer was added, followed by 30 μL of IMAP™ binding solution using a multichannel pipette. The plate was incubated at RT in darkness for 2 h. The assay plate was then read on an Analyst HT plate reader (Molecular Devices) using the settings described below: […]

[1] abbreviates: average (e.g. geometric mean) where more than one data point, read-out: ERK5 IC50.

In patent US10344017B2, “Pyrrolcarboxamide derivatives for the inhibition of ERK5” (CANCER RESEARCH TECHNOLOGY LIMITED, priority 2014, dated 2019) one finds IC50 data, which are given here for 34 compounds.

Read-outs that look alike come from different tables or passages of the source.

T1 sequence (Q13164 whole entry): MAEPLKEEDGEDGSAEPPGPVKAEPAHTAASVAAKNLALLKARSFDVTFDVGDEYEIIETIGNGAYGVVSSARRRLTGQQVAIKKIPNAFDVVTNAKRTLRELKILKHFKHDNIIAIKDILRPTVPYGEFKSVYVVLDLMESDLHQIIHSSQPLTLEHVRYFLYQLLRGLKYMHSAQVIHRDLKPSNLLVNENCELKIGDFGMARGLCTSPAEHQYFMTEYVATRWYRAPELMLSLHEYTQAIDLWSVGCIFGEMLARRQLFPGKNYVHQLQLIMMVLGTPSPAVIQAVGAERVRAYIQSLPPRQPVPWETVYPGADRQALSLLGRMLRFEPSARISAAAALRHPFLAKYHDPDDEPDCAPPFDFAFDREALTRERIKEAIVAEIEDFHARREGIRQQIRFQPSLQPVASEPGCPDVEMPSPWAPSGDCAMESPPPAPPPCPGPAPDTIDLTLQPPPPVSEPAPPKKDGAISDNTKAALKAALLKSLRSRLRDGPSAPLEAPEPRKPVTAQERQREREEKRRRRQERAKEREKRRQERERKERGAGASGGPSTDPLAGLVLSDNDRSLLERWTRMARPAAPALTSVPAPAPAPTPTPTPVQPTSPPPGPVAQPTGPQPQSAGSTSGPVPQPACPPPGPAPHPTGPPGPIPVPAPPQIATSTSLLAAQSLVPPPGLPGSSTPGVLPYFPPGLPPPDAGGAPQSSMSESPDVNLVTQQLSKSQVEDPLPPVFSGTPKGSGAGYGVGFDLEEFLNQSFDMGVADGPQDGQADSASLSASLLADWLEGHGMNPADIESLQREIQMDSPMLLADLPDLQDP

In the case of `CCOc1ccncc1NC(=O)c1cc(C(=O)c2c(Cl)ccc(Cl)c2F)c[nH]1` [Example 97, 4-(3,6-Dichloro-2-fluorobenzoyl)-N-(4-ethoxypyridin-3-yl)-1H-pyrrole-2-carboxamide], the IC50 (as a rule, the concentration that gives 50% inhibition) under setting [1] is 1380 nM.

For the compound `O=C(Nc1cnccc1N1CCCC1)c1cc(C(=O)c2c(Cl)ccc(Cl)c2F)c[nH]1` [Example 98, 4-(3,6-Dichloro-2-fluorobenzoyl)-N-(4-(pyrrolidin-1-yl)pyridin-3-yl)-1H-pyrrole-2-carboxamide], under setting [1], the IC50 is 8710 nM.

`CS(=O)(=O)CCNc1ncc(NC(=O)c2cc(C(=O)c3c(Cl)ccc(Cl)c3F)c[nH]2)cn1` [Example 101, 4-(3,6-Dichloro-2-fluorobenzoyl)-N-(2-((2-(methylsulfonyl)ethyl)amino)pyrimidin-5-yl)-1H-pyrrole-2-carboxamide]: the IC50 under setting [1] was 115 nM.

Turning to `CN1CCC(N(C)c2ncc(NC(=O)c3cc(C(=O)c4c(Cl)ccc(Cl)c4F)c[nH]3)cn2)CC1` [Example 105, 4-(3,6-Dichloro-2-fluorobenzoyl)-N-(2-(methyl(1-methylpiperidin-4-yl)amino)pyrimidin-5-yl)-1H-pyrrole-2-carboxamide], the IC50 under setting [1] worked out at 20.7 nM.

With `CN(c1ncc(NC(=O)c2cc(C(=O)c3c(Cl)ccc(Cl)c3F)c[nH]2)cn1)C1CCNCC1` [Example 106, 4-(3,6-Dichloro-2-fluorobenzoyl)-N-(2-(methyl(piperidin-4-yl)amino)pyrimidin-5-yl)-1H-pyrrole-2-carboxamide], the IC50 under setting [1] was found to be 20 nM.

Regarding `COc1ccc(Cl)c(C(=O)c2c[nH]c(C(=O)Nc3ccc(CN4CCOCC4)nc3)c2)c1F` [Example 116, 4-(6-Chloro-2-fluoro-3-methoxybenzoyl)-N-(6-(morpholinomethyl)pyridin-3-yl)-1H-pyrrole-2-carboxamide], the IC50 under setting [1] turned out to be 21.8 nM.

As for `COc1ccc(Cl)c(C(=O)c2c[nH]c(C(=O)Nc3ccc(CC4CCNCC4)nc3)c2)c1F` [Example 117, 4-(6-Chloro-2-fluoro-3-methoxybenzoyl)-N-(6-(piperidin-4-ylmethyl)pyridin-3-yl)-1H-pyrrole-2-carboxamide], under setting [1], the IC50 is 9.2 nM.

As for `Cc1ccc(NC(=O)c2cc(C(=O)c3c(F)cccc3Cl)c[nH]2)c[n+]1[O-]` [Example 118, 5-(4-(2-Chloro-6-fluorobenzoyl)-1H-pyrrole-2-carboxamido)-2-methylpyridine 1-oxide], the IC50 under setting [1] turned out to be 1310 nM.

Consider `O=C(Nc1ccc(CO)nc1)c1cc(C(=O)c2c(F)cccc2Cl)c[nH]1` [Example 119, 4-(2-chloro-6-fluorobenzoyl)-N-(6-(hydroxymethyl)pyridin-3-yl)-1H-pyrrole-2-carboxamide], for which the IC50 under setting [1] came out at 530 nM.

Consider `O=C(Nc1ccc(CO)nc1)c1cc(C(=O)c2c(Cl)ccc(Cl)c2F)c[nH]1` [Example 120, 4-(3,6-dichloro-2-fluorobenzoyl)-N-(6-(hydroxymethyl)pyridin-3-yl)-1H-pyrrole-2-carboxamide], for which the IC50 under setting [1] is 200 nM.

On to `O=C(Nc1ccncc1)c1cc(C(=O)c2c(F)cccc2F)c[nH]1` [Example 121, 4-(2,6-Difluorobenzoyl)-N-(pyridin-4-yl)-1H-pyrrole-2-carboxamide], for which the midpoint of inhibition, the IC50, lay at 900 nM.

`O=C(NC1CCNC1)c1cc(C(=O)c2c(F)cccc2F)c[nH]1` (stereo not shown) [Example 125, 4-(2,6-Difluorobenzoyl)-N-(pyrrolidin-3-yl)-1H-pyrrole-2-carboxamide]: the IC50 under setting [1] is 31000 nM.

As to `O=C(Nc1cc[n+]([O-])cc1)c1cc(C(=O)c2c(F)cccc2F)c[nH]1` [Example 127, 4-(4-(2,6-Difluorobenzoyl)-1H-pyrrole-2-carboxamido)pyridine 1-oxide], the IC50 under setting [1] is 11500 nM.

With `O=C(Nc1ccc[n+]([O-])c1)c1cc(C(=O)c2c(F)cccc2F)c[nH]1` [Example 128, 3-(4-(2,6-Difluorobenzoyl)-1H-pyrrole-2-carboxamido)pyridine 1-oxide], the IC50 under setting [1] turned out to be 13800 nM.

On to `O=C(Nc1ccncn1)c1cc(C(=O)c2c(F)cccc2F)c[nH]1` [Example 130, 4-(2,6-Difluorobenzoyl)-N-(pyrimidin-4-yl)-1H-pyrrole-2-carboxamide], for which the IC50 under setting [1] was found to be 2140 nM.

With `O=C(Nc1ccncn1)c1cc(C(=O)c2cccc(Cl)c2Cl)c[nH]1` [Example 131, 4-(2,3-Dichlorobenzoyl)-N-(pyrimidin-4-yl)-1H-pyrrole-2-carboxamide], the IC50 under setting [1] was found to be 2660 nM.

On to `O=C(Nc1ccncn1)c1cc(C(=O)c2c(F)cccc2Cl)c[nH]1` [Example 132, 4-(2-Chloro-6-fluorobenzoyl)-N-(pyrimidin-4-yl)-1H-pyrrole-2-carboxamide], for which, under setting [1], the half-inhibitory concentration (IC50) worked out at 1150 nM.

On to `O=C(Nc1ccncn1)c1cc(C(=O)c2c(F)cccc2Br)c[nH]1` [Example 133, 4-(2-Bromo-6-fluorobenzoyl)-N-(pyrimidin-4-yl)-1H-pyrrole-2-carboxamide], for which the IC50 under setting [1] is 1800 nM.

With `Cc1cc(NC(=O)c2cc(C(=O)c3c(F)cccc3Cl)c[nH]2)cc(C)n1` [Example 134, 4-(2-Chloro-6-fluorobenzoyl)-N-(2,6-dimethylpyridin-4-yl)-1H-pyrrole-2-carboxamide], under setting [1], the half-maximal inhibitory concentration (IC50) stood at 368 nM.

Turning to `Cc1cc(NC(=O)c2cc(C(=O)c3c(F)cccc3Br)c[nH]2)cc(C)n1` [Example 135, 4-(2-Bromo-6-fluorobenzoyl)-N-(2,6-dimethylpyridin-4-yl)-1H-pyrrole-2-carboxamide], under setting [1], the concentration for half-maximal inhibition (IC50) stood at 653 nM.

As for `Cc1cc(NC(=O)c2cc(C(=O)c3c(F)cccc3Cl)c[nH]2)ccn1` [Example 136, 4-(2-Chloro-6-fluorobenzoyl)-N-(2-methylpyridin-4-yl)-1H-pyrrole-2-carboxamide], the IC50 under setting [1] stood at 401 nM.

`Cc1cc(NC(=O)c2cc(C(=O)c3c(F)cccc3Br)c[nH]2)ccn1` [Example 137, 4-(2-Bromo-6-fluorobenzoyl)-N-(2-methylpyridin-4-yl)-1H-pyrrole-2-carboxamide]: the IC50 under setting [1] was 1080 nM.

As to `O=C(Nc1ccnnc1)c1cc(C(=O)c2c(F)cccc2Cl)c[nH]1` [Example 138, 4-(2-Chloro-6-fluorobenzoyl)-N-(pyridazin-4-yl)-1H-pyrrole-2-carboxamide], the IC50 under setting [1] came to 439 nM.

For the compound `O=C(Nc1ccnnc1)c1cc(C(=O)c2c(F)cccc2Br)c[nH]1` [Example 139, 4-(2-Bromo-6-fluorobenzoyl)-N-(pyridazin-4-yl)-1H-pyrrole-2-carboxamide], under setting [1], the half-maximal inhibitory concentration (IC50) amounted to 818 nM.

For `O=C(Nc1ccnc(Cl)n1)c1cc(C(=O)c2c(F)cccc2Cl)c[nH]1` [Example 140, 4-(2-Chloro-6-fluorobenzoyl)-N-(2-chloropyrimidin-4-yl)-1H-pyrrole-2-carboxamide], the IC50 under setting [1] turned out to be 4350 nM.

Turning to `O=C(Nc1ccnc(Cl)n1)c1cc(C(=O)c2c(F)cccc2Br)c[nH]1` [Example 141, 4-(2-Bromo-6-fluorobenzoyl)-N-(2-chloropyrimidin-4-yl)-1H-pyrrole-2-carboxamide], under setting [1], the IC50 turned out to be 7760 nM.

In the case of `Cc1cc(NC(=O)c2cc(C(=O)c3c(F)cccc3Cl)c[nH]2)nc(C)n1` [Example 142, 4-(2-Chloro-6-fluorobenzoyl)-N-(2,6-dimethylpyrimidin-4-yl)-1H-pyrrole-2-carboxamide], under setting [1], the IC50 amounted to 4130 nM.

With `Cc1cc(NC(=O)c2cc(C(=O)c3c(F)cccc3Br)c[nH]2)nc(C)n1` [Example 143, 4-(2-Bromo-6-fluorobenzoyl)-N-(2,6-dimethylpyrimidin-4-yl)-1H-pyrrole-2-carboxamide], the IC50 under setting [1] came to 4950 nM.

Take `O=C(Nc1cncnc1)c1cc(C(=O)c2c(F)cccc2Br)c[nH]1` [Example 145, 4-(2-Bromo-6-fluorobenzoyl)-N-(pyrimidin-5-yl)-1H-pyrrole-2-carboxamide]: the IC50 under setting [1] was 654 nM.

As to `O=C(Nc1cc[nH]c(=O)n1)c1cc(C(=O)c2c(F)cccc2Cl)c[nH]1` [Example 146, 4-(2-Chloro-6-fluorobenzoyl)-N-(2-oxo-1,2-dihydropyrimidin-4-yl)-1H-pyrrole-2-carboxamide], the IC50 under setting [1] was found to be 2940 nM.

Consider `O=C(Nc1cc[nH]c(=O)n1)c1cc(C(=O)c2c(F)cccc2Br)c[nH]1` [Example 147, 4-(2-Bromo-6-fluorobenzoyl)-N-(2-oxo-1,2-dihydropyrimidin-4-yl)-1H-pyrrole-2-carboxamide], for which the IC50 under setting [1] stood at 34200 nM.

Regarding `Cc1ncccc1NC(=O)c1cc(C(=O)c2c(F)cccc2Cl)c[nH]1` [Example 148, 4-(2-Chloro-6-fluorobenzoyl)-N-(2-methylpyridin-3-yl)-1H-pyrrole-2-carboxamide], the IC50 under setting [1] was found to be 960 nM.

Turning to `Cc1ncccc1NC(=O)c1cc(C(=O)c2c(F)cccc2Br)c[nH]1` [Example 149, 4-(2-Bromo-6-fluorobenzoyl)-N-(2-methylpyridin-3-yl)-1H-pyrrole-2-carboxamide], the half-inhibitory concentration (IC50) under setting [1] came out at 2390 nM.

For the compound `Cc1ccc(NC(=O)c2cc(C(=O)c3c(F)cccc3Cl)c[nH]2)cn1` [Example 150, 4-(2-Chloro-6-fluorobenzoyl)-N-(6-methylpyridin-3-yl)-1H-pyrrole-2-carboxamide], under setting [1], the IC50 is 1030 nM.
